Assays:
[1] = tested on: amyloid β-derived diffusible ligand (ADDL) induced synaptotoxicity; settings: cited from earlier work
[2] = tested on: PrP^Sc-induced synaptotoxicity on hippocampal neurons; settings: cited from earlier work
[3] = tested on: PrP^Sc-induced synaptotoxicity on hippocampal neurons; assay: cells; type: cell-based, mice
[4] = tested on: PrP^Sc-induced synaptotoxicity on hippocampal neurons; type: cell-based, mice
CKIε = CKIε (Homo sapiens, UniProt P49674); settings: Verkaar et al. (2011); cited from earlier work
Sequence of CKIε (P49674 whole entry, species assumed): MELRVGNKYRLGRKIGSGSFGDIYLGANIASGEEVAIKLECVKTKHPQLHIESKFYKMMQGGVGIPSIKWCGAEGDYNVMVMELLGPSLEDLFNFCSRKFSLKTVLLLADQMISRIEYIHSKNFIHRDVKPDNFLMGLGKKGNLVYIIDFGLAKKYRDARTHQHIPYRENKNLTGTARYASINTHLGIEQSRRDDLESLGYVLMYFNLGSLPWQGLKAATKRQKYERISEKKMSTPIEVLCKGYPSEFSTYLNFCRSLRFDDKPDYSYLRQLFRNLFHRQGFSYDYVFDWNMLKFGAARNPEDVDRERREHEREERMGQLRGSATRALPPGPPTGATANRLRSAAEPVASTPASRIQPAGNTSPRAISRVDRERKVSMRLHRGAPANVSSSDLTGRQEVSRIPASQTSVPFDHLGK

CKIδ = CKIδ (Homo sapiens, UniProt P48730); settings: Verkaar et al. (2011); cited from earlier work
Sequence of CKIδ (P48730 whole entry, species assumed): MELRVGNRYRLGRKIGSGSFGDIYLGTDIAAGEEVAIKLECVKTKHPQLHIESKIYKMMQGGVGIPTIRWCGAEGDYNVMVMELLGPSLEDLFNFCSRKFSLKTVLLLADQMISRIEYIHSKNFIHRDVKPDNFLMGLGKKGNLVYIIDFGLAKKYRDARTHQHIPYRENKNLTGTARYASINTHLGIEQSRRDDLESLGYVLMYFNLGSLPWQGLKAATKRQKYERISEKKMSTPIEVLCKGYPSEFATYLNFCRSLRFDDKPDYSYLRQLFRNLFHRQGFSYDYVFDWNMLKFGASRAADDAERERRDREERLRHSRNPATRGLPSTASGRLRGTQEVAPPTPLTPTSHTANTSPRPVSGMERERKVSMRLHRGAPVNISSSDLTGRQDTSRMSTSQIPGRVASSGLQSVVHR

Structure (SMILES)	Effect on Aβ oligomer induced dendritic spine retraction / loss [1]	Effect on PrP^Sc-induced retraction of dendritic spines / synaptotoxicity [2]	Dose dependence of effect on PrP^Sc-induced spine loss [3]	Effect on PrP^Sc effects on dendritic spine number [3]	EC50 ([3]; Mus musculus, Hippocampal neuron, 24 h, read-out: EC50 of dose response curve for the rescuing effect on spine number)	Effect on PrP^Sc effects on mEPSC properties (frequency and amplitude) [4]	Effect against ADDL induced synaptotoxicity [1]	Effect on spine retraction caused by PrP^Sc [3]	Reversal of dendritic spine retraction accrued during first 24 hrs of PrP^Sc treatment [3]	Inhibition of casein kinase isoform CKIε (CKIε)	Inhibition of casein kinase isoform CKIδ (CKIδ)
Cc1cccc(C#Cc2ccccc2)n1 [MPEP]	blocked	had no influence	–	–	–	–	–	–	–	–	–
O=c1ncn2nc(Sc3ccc(F)cc3F)ccc2c1-c1c(Cl)cccc1Cl [neflamapimod]	–	–	dose dependent	blocked	28.9 nM	blocked	showed positive effects	–	–	–	–
COc1nccc(-c2c(-c3ccc(F)cc3)ncn2C2CCC(O)CC2)n1 (centres unmarked) [SB239063]	no significant effect	blocked	–	–	–	–	ineffective	prevented spine retraction	able to reverse the dendritic spine retraction	reported to inhibit	reported to inhibit

From patent US20220387432A1 (priority 2019, published 2022)
